The results in this text go back to article PMC9744210, “Discovery of the SHP2 allosteric inhibitor 2-((3R,4R)-4-amino-3-methyl-2-oxa-8-azaspiro[4.5]decan-8-yl)-5-(2,3-dichlorophenyl)-3-methylpyrrolo[2,1-f][1,2,4] triazin-4(3H)-one” (Journal of Enzyme Inhibition and Medicinal Chemistry, 2022).

Molecules are shown by their SMILES.

The target in this assay is T1, SHP2 (Homo sapiens, UniProt Q06124).
T1 construct: 6xHis (N, cleaved yes); TEV cleavage site (N, cleaved yes); made in house; host or cells: E. coli BL21 (DE3)
T1 sequence (Q06124 1-525): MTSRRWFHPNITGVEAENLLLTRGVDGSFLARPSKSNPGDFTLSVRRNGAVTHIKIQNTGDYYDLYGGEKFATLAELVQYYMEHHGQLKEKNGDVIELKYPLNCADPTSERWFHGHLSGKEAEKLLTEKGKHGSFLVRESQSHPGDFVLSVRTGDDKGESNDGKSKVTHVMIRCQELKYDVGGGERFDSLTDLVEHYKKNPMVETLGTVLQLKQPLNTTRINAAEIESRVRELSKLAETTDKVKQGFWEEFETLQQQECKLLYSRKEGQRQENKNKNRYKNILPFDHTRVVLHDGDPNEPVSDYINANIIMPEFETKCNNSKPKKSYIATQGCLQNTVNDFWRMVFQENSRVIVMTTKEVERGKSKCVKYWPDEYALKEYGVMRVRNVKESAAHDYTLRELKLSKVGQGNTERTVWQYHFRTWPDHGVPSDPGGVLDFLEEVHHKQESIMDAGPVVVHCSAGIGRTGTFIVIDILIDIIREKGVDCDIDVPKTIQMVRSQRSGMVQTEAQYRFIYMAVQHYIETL
Kind of assay: SHP2 phosphatase activity inhibition, DiFMUP prompt fluorescence assay. It is filed as biochemical. Particulars: 0.5 nM SHP2 activated with 0.125 µM bis-tyrosyl-phosphorylated peptide; substrate DiFMUP 200 μM; room temperature; read-out: Inhibitory activity IC50. As for the experimental part:
The measurement of the catalytic activity of SHP2 is using the surrogate substrate 6,8-difluoro-4-methylumbelliferyl phosphate (DiFMUP) in a prompt fluorescence assay format.[14]^,[22]^,[23] In special, the phosphatase reaction was performed at room temperature in a 384-well black plate (Corning) with a total volume of 20 μL. The assay buffer contained 60 mM HEPES, pH7.2, 75 mM NaCl, 75 mM KCl, 1 mM EDTA, 5 mM DTT, and 0.05% Triton X-100.
After 60 min incubation at room temperature, the surrogate substrate DiFMUP (Thermo, Cat: D6567, 200 μM) was added to the catalytic reaction. After 30 min incubation at room temperature, the fluorescence signal was measured at the excitation and emission wavelengths of 340 nm and 450 nm respectively with a plate reader (Tecan Spark). The curves of the inhibitor dose–response were analysed using normalised IC50 regression curve fitting with control-based normalisation.
As for `C[C@H]1OCC2(CCN(c3nn4cnc(-c5cccc(Cl)c5Cl)c4c(=O)n3C)CC2)[C@H]1N` [PB17-021-01], the IC50 stood at 104 nM. Regarding `C[C@H]1OCC2(CCN(c3nn4ccc(-c5cccc(Cl)c5Cl)c4c(=O)n3C)CC2)[C@H]1N` [PB17-026-01, 2-((3R,4R)-4-amino-3-methyl-2-oxa-8-azaspiro[4.5]decan-8-yl)-5–(2,3-dichlorophenyl)-3-methylpyrrolo[2,1-f][1,2,4]triazin-4(3H)-one], the IC50 turned out to be 38.9 nM.

For `C[C@H]1OCC2(CCN(c3nn4ccc(-c5ccncc5)c4c(=O)n3C)CC2)[C@H]1N` [PB17-035-01], the IC50 worked out at 168 nM.

Take `Cn1c(N2CCC(C)(CN)CC2)nn2ccc(-c3cccc(Cl)c3Cl)c2c1=O` [PB17-036-01]: the 50% inhibitory concentration (IC50) turned out to be 645 nM.

One may read the IC50 as the concentration that gives 50% inhibition.
